Source: US20060167050A1 (POOGER PROPERTIES LIMITED, priority 2002, published 2006)

What was measured:
[1] = tested on: ADHD; conditions: in vivo; cited from earlier work
[2] = tested on: patients who had been previously treated with methyl phenidate; conditions: melatonin 3 mg; cited from earlier work
[3] = tested on: children with delayed sleep phase syndrome; conditions: 2.5 to 7.5 mg PO once daily before expected bedtime; cited from earlier work
[4] = tested on: ADHD patients with insomnia disorders; assay: sleep induction by melatonin in ADHD patients with insomnia disorders first treated with methyl phenidate; type: in vivo, human; conditions: pure melatonin 2.5 mg
[5] = tested on: patients with major depressive disorder; conditions: cited from earlier work
[6] = tested on: dopamine levels; conditions: normal therapeutic doses; healthy, adult men; cited from earlier work
[7] = tested on: ADHD patients; conditions: versus 54% of ADHD cases with concomitant insomnia; cited from earlier work

Question: For `Clc1cccc(Cl)c1N=C1NCCN1` [clonidine], which “efficacy in treating ADHD” value [1] is on record?
Answer: Its value is “effective in treating ADHD”.

Question: Which time for insomnia [2] does the source give for `COc1ccc2[nH]cc(CCNC(C)=O)c2c1` [melatonin, N-acetyl-5-methoxytryptamine] here?
Answer: Its time for insomnia is “significant reduction in the time for insomnia”.

Question: And the “average onset of sleep after melatonin administration” value [3]?
Answer: Its value is at most 1 h.

Question: What about the “activity as a sleep-inducing agent” value [4] of the same compound?
Answer: Its value is “active as a sleep-inducing agent”.

Question: And the sleep quality scores ([5]; concomitant slow-release melatonin at 9 pm versus fluoxetine alone, 4 weeks)?
Answer: Its sleep quality scores is “significantly improved sleep quality scores”.

Question: And the “need for additional sleep medications” value ([5]; concomitant slow-release melatonin with fluoxetine)?
Answer: The value was “avoided the need for additional sleep medications”.

Question: Which results are given for `COC(=O)C(c1ccccc1)C1CCCCN1` (centres unmarked) [methylphenidate]?
Answer: dopamine levels (PET) [6]: increased their dopamine levels; problems relating to insomnia in treated ADHD patients [7]: 64%
